Measured values taken from publication PMC11836371, “Virtual fragment screening for DNA repair inhibitors in vast chemical space” (Nature Communications, 2025).
Several values for one entry are separate records, joined by “and”; a condition that tells them apart may be missing. Equal entries are not always repeated. Where two headings read alike, the source gives them in different places.

Experiments:
human OGG1 enzyme [1] = biological target: T1, human OGG1 enzyme (Homo sapiens, UniProt O15527); assay: Differential scanning fluorimetry (DSF) thermal shift assay; assay type: binding; design: ∆Tm (K): unit of the concentration uncertain; conditions: for ΔTm: concentration not given
T1 sequence (O15527 whole entry): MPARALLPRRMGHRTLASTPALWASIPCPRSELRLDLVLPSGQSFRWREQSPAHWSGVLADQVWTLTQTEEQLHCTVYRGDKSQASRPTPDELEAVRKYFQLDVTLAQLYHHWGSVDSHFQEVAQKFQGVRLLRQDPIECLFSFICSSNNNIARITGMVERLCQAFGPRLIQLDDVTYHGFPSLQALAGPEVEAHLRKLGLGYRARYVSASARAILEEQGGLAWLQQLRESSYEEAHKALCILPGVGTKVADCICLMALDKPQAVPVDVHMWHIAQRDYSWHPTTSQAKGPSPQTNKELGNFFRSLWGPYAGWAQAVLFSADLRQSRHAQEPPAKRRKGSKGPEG
Description: The temperature was increased from 20 °C to 85 °C with 10 readings/degree. Tm values were calculated using an excel template and fitting to the Boltzmann equation in Prism v.6.07 (GraphPad Software).

human OGG1 enzyme [2] = biological target: T1, human OGG1 enzyme; assay: OGG1 glycosylase activity assay (enzyme inhibition, APE1-coupled fluorescence); assay type: biochemical
Description: “8” signifies 8-oxoA and “FAM” and “Dab” signify fluorescein and dabcyl (TriLink Biotech). Briefly, compounds dissolved in DMSO were dispensed using an Echo 550 (Labcyte), followed by transfer of enzyme and substrate solutions manually with a 16-channel pipette or with a Multidrop (Thermo Scientific). The plates were centrifuged, sealed and incubated at room temperature overnight (15 h) and read the following morning in an Hidex Sense plate reader (Hidex Oy) using a 485-nm filter with a bandwidth of 10 nm for excitation and a 535-nm filter with a bandwidth of 20 nm for emission.

[3] = tested on: NF-κB activation in HEK293T pGF NF-κB cells; assay: TNF-α induced NF-κB activation assay; assay type: cell-based; conditions: Homo sapiens, HEK-293T; NFκB activation assay; ± SD; read-out: pEC50 (converted)
Description: The inhibition of TNF-α induced NF-κB activation was measured in HEK293T cells transfected with the pGreenfire NF-κB plasmid. This is a plasmid that has NF-κB response elements (TRE) coupled to GFP and luciferase expression. When the NF-κB is activated by TNF-α, it binds to the TRE and induces GFP expression, and the fluorescence can be measured in a plate reader. The cells were authenticated with STR profiling, frozen down and these stocks were used in experiments. The HEK293T pGF NF-κB cells were kept in DMEM with 5% FBS and 1% P/S but, when seeded for the assay the medium was changed to DMEM FluoroBrite with 1% dialyzed FBS. All cell culture reagents were purchased from Thermo Fisher Scientific. Compounds were nano-dispensed (Echo acoustic dispenser) in 96-well, black/clear, assay plates (Corning #3904), duplicate plates, in 8-points dose-response curves, 1:2 dilutions, with DMSO compensation (0.3% DMSO). Cells were seeded at 30000 cells/well in medium containing 10 ng/mL of TNF-α (Sigma-Aldrich), except negative control wells which only contained cells in medium. Cells were cultured for 24 hours in a humidified incubator at 37 °C with 5% CO2 after which the GFP fluorescence was measured in a Sense plate reader (Hidex) with ex485/em535. The RFU data from the duplicate plates were combined to calculate % inhibition of NF-κB activation and IC50-values were calculated using XLfit (IDBS). In parallel with the NF-κB assay, a CellTiterGlo (Promega) cell viability assay was run to exclude compounds affecting cell viability. Compounds were nano-dispensed (Echo acoustic dispenser) in assay plates in 11-points dose-response curves, 1:3 dilutions, without DMSO compensation, with duplicates on the same plate. Cells were seeded at 7500 cells/well in 25 µL medium (DMEM FluoroBrite with 1% dialyzed FBS) containing 10 ng/mL TNF-α and cultured for 24 hours, with column 24 containing only culture medium. After equilibration to room temperature, the CellTiterGlo reagents were mixed and 25 µL/well were added to the cell plate. After 2 min mixing of the plate on an orbital shaker, the plate was incubated for 10 min at room temperature followed by luminescence reading in Sense. The cell viability was calculated compared to untreated control wells and the EC50 values were determined in XLfit (IDBS). […]

[4] = 495 (unit uncertain) as printed in sheet footnote
[5] = Table S2, virtual fragment screen hits, read-out: pIC50 (converted)
[6] = 99 (unit uncertain) as printed in sheet footnote

Compound | ∆Tm (K) (human OGG1 enzyme [1]; 99 μM) | ∆Tm (K) (human OGG1 enzyme [1]; 495 µM) | also measured
Cc1ccc(CNC(=O)Nc2cnn(C)c2C(F)(F)F)c(C)c1 [ZINC000000241283] | 0.39 K |  | 
Cc1csc(NC(=O)c2ccc(N)cc2)n1 [ZINC000005740683] |  | 0.52 K | 
O=C(NCc1ccc2oc(=O)[nH]c2c1)c1cc(C2CC2)on1 [ZINC000025095824] | 0.10 K and 0.1 K |  | 
O=C(Cn1c(C(F)(F)F)nc2ccccc21)NCc1ccccc1 [ZINC000032814728] | 0.79 K |  | 
O=C(NCc1cnn(-c2ccccc2)c1)c1cc(C2CC2)no1 [ZINC000045518705] | -0.07 K |  | 
C[C](CNC(=O)c1cn2c(n1)CCC2)Oc1ccc(Cl)cc1 [ZINC000047544921] | 0.05 K |  | 
Cc1ccc(NC(=O)Nc2c[nH]nc2C)s1 [ZINC000075413056] |  | 0.35 K | 
C[C](CNC(=O)c1cn(-c2ccccc2)nn1)Oc1ccc(C)cc1 [ZINC000080662795] | -0.11 K |  | 
O=C(NCc1ccccc1O)c1ccc(F)cc1 [ZINC000082283111] |  | 0.67 K | 
CC(C)(NC(=O)NCc1ccco1)c1ccc(Br)cc1 [ZINC000088254610] | 0.27 K |  | 
C[C](NC(=O)c1ccc(C)nc1)c1cnn(-c2ccc(F)cc2)c1C [ZINC000142711832] | -0.11 K |  | 
c1cnc2ccc(CNc3nnc4ccccn34)cc2c1 [ZINC000155922887] | inactivea |  | 
Cc1csc(Nc2ncnc3sccc23)n1 [ZINC000163077816] |  | -0.51 K | 
Cc1n[nH]cc1CNC(=O)C(C)c1ccccc1 (stereo not shown) [ZINC000182379077] |  | 0.08 K | 
COCc1csc(NCc2ccccc2)n1 [ZINC000196610182] |  | -0.06 K | 
Cn1ncc(NC(=O)N[C]2COc3ccc(Cl)cc32)c1C(F)F [ZINC000337657385] | -0.16 K |  | 
C[C](CCc1ccccc1)C(=O)N1CC(c2ccccc2)C1 [ZINC000342133714] | 0.08 K |  | 
COc1ccc([C]2CCCCCN2C(=O)Nc2noc(C)c2C)cc1 [ZINC000455661485] | -0.14 K |  | 
O=C(NCc1nc(-c2ccccc2)no1)c1cn(-c2ccccc2)nn1 [ZINC000507023994] | -0.92 K |  | 

Compound | ∆Tm (K) (human OGG1 enzyme [1]; 99 μM) | ∆Tm (K) (human OGG1 enzyme [1]; 495 µM) | also measured
CC(=O)Nc1nc(-c2ccc(Cl)cc2)n[nH]1 [ZINC000517746346] |  | -0.15 K | 
COc1ccc(C2(CNC(=O)c3ccc(F)s3)CCC2)cc1 [ZINC000572161337] | 0.17 K |  | 
O=C(NCC1(O)CN(C(=O)c2cccnn2)C1)c1ccc(Cl)cc1 [ZINC000584413720] | 0.65 K |  | 
C[C]C(=O)Nc1nnc2ccccn12 [ZINC000613462643] | 0.05 K |  | 
COCC(C)(O)C(=O)Nc1cnc2ccccn12 (stereo not shown) [ZINC000618358369] |  | 0.11 K | 
Cc1cc(=O)c(C(=O)NC2(C)CC2(C)C)c[nH]1 (stereo not shown) [ZINC000620078540] |  | 0.03 K | 
Cc1ccc(NC(=O)N2CC(O)(c3ccc(Cl)cc3)C2)s1 [ZINC000633809751] | 0.48 K |  | 
Cc1cccc2nc(C(=O)NCc3ccc(Br)o3)cn12 [ZINC000677630607] | -0.08 K |  | 
O=C(NCC1([C](O)c2ccccc2)CC1)c1ccc(Cl)cc1 [ZINC000700852234] | -0.27 K |  | 
Cc1conc1NC(=O)c1csc2cncn12 [ZINC000772563154] |  | 0.52 K | 
CCc1ccc(C(=O)NC[C]2CS(=O)(=O)c3ccccc3O2)cc1 [ZINC001002782586] | -0.13 K |  | 
Cc1ccc(C(=O)NCc2nc(-c3cccnc3)no2)cc1C [ZINC001046413262] | -0.07 K |  | 
CCN(Cc1ccccc1)S(=O)(=O)NC1Cc2ccccc2C1 [ZINC001146929060] | 0.00 K and 0 K |  | 
O=C(Nc1noc2c1CCCC2)C1CC12CCC2 (stereo not shown) [compound 1] |  |  | OGG1 inhibition, dose-response (Figure2C) (human OGG1 enzyme [2]; Concentration (M) 9.67e-7): 3.85 and 6.91; OGG1 inhibition, dose-response (Figure2C) (human OGG1 enzyme [2]; Concentration (M) 0.000248): 16.25 and 9.26; OGG1 inhibition, dose-response (Figure2C) (human OGG1 enzyme [2]; Concentration (M) 0.000495): 25.93 and 22.47; inhibition at 99 µM (human OGG1 enzyme [2]; at 99 μM, read-out: percent inhibition of OGG1): < 50%; IC50 (human OGG1 enzyme [2]; listed as Fragment 1): too weak to determine an IC50 value; IC50 (human OGG1 enzyme [2]; read-out: IC50): > 99 µM; ∆Tm (K) (human OGG1 enzyme [1]; [4]): 2.8 K; ΔTm (human OGG1 enzyme [1]): 2.8 K
Cc1ccc(CNC(=O)c2ccc(F)nc2)cc1 [compound 3] |  | 0.6 K | IC50 (human OGG1 enzyme [2]; [5]): > 100 µM; ∆Tm (K) (human OGG1 enzyme [1]; [4]): 0.6 K
CC1(C)CC(NC(=O)c2csc3cncn23)C1 [compound 4] |  | 0.5 K | IC50 (human OGG1 enzyme [2]; [5]): > 100 µM; ∆Tm (K) (human OGG1 enzyme [1]; [4]): 0.5 K
O=C(Nc1noc2c1CCCC2)[C@H]1Cc2ccccc21 [compound 5] | 4.1 ± 0.7 K |  | IC50 (human OGG1 enzyme [2]; read-out: IC50): 58 µM; ∆Tm (K) (human OGG1 enzyme [1]; [6]): 4.1 ± 0.7 K; ΔTm (human OGG1 enzyme [1]): 4.1 K
O=C(Cc1c(F)cccc1F)Nc1noc2c1CCCC2 [compound 6] | 1.1 ± 0.5 K |  | IC50 (human OGG1 enzyme [2]; Table 1, mean ± SD, at least three independent replicates, read-out: pIC50 (converted)): 36.3 µM; ∆Tm (K) (human OGG1 enzyme [1]; [6]): 1.1 ± 0.5 K
O=C(Cc1ccc(-n2ncc3c2CNCC3)cc1)Nc1noc2c1CCCC2 [compound 15] |  |  | EC50 [3]: 13.2 µM

Now from value to compound, other results behind:

∆Tm (K) (human OGG1 enzyme [1]; 99 μM) | ∆Tm (K) (human OGG1 enzyme [1]; 495 µM) | Compound | also measured
 | -0.03 K | Cc1cnc(Nc2ncnc3ccccc23)s1 [ZINC000031949200] | 
 | 0.26 K | Cc1n[nH]cc1CNC(=O)C1Cc2ccccc21 (stereo not shown) [ZINC000088452370] | 
Inactivea |  | CCc1ccc(CC(=O)Nc2nnc(C3CC3)n2C)cc1 [ZINC000157183023] | 
 | -0.01 K | COc1ccc(F)cc1CNC(=O)c1cn[nH]c1 [ZINC000188683358] | 
0.83 K |  | C=Cc1ccc(C(=O)NCc2cn(-c3ccccc3)nc2C)cc1 [ZINC000192206237] | 
 | 0.18 K | CCCC1CCCC1C(=O)NCc1c[nH]nc1C (stereo not shown) [ZINC000294547394] | 
0.37 K |  | Cc1ccn2c(NC(=O)C3(Oc4ccc(Cl)cc4)CC3)nnc2c1 [ZINC000341519123] | 
 | 0.38 K | CC1CC1CNC(=O)C1CCc2cccnc21 (stereo not shown) [ZINC000341791847] | 
 | 0.07 K | Cc1csc(NC(=O)N2CC(C)C(O)C2)n1 (stereo not shown) [ZINC000350512979] | 
-0.01 K |  | CN1C(=O)Cc2cc(Nc3ncnc4c(F)cccc34)ccc21 [ZINC000350560229] | 
0.23 K |  | O=C(NC1CN(C(=O)c2ccc(Cl)s2)C1)c1ccc(Cl)o1 [ZINC000357905855] | 
0.43 K |  | Cn1c(=O)n(C)c2cc(Nc3ncnc4ccccc34)ccc21 [ZINC000358521717] | 
-0.04 K |  | Cn1nc(Nc2ncnc3cc(F)c(F)cc23)cc1C1CC1 [ZINC000439491208] | 
-0.23 K |  | Cn1ncc2c(Nc3cccc(-c4cccs4)c3)ncnc21 [ZINC000445022399] | 
-0.38 K |  | COc1ccc2[nH]cc(CC(=O)Nc3nnc4cc(C)ccn34)c2c1 [ZINC000520908378] | 
-0.19 K |  | O=C(NCc1ccn(-c2ccccc2)n1)c1cc(-c2ccccc2)no1 [ZINC000617287579] | 
 | -0.08 K | Cc1cc(NC(=O)c2coc(C3CC3)n2)cs1 [ZINC000634423932] | 
 | 0.01 K | Cc1n[nH]cc1CNC(=O)NC1(C)CC1(C)C (stereo not shown) [ZINC000663691150] | 
 | 0.01 K | Cc1cc(CNC(=O)c2c(O)cccc2F)[nH]n1 [ZINC000681276767] | 
-0.42 K |  | Cc1ccc(NC(=O)N2CC(O)(c3ccc(Cl)cc3)C2)s1 [ZINC000776423770] | 
 | -0.02 K | Cc1ccccc1CNC(=O)Nc1cnnn1C [ZINC000787791820] | 
 | 0.07 K | O=C(NCC1(O)CCC1)c1nc(Cl)cs1 [ZINC000789956517] | 
 | -0.03 K | Cc1conc1NC(=O)c1nc(Cl)cs1 [ZINC000789997344] | 
 | -0.05 K | Cn1ccnc1NC(=O)c1nc(Cl)cs1 [ZINC000851710058] | 
 | -0.03 K | Cc1nocc1NC(=O)Nc1ccnn1C(C)C [ZINC000866108350] | 
 | -0.15 K | CCC(C)(O)C(=O)Nc1nnc2n1CCCC2 (stereo not shown) [ZINC000935297684] | 
-0.03 K |  | O=S(=O)(Nc1ccc(Cl)cc1F)N1CCc2ccccc2C1 [ZINC000990255105] | 
0.15 K |  | Cc1cscc1NC(=O)NCc1cccc(-n2cncn2)c1 [ZINC001624168456] | 
 | 1.6 K and > 1 K | CC1(C)CC1(C)NC(=O)c1cc2cccn2cn1 (stereo not shown) [compound 2] | IC50 (human OGG1 enzyme [2]; [5]): > 100 µM; ∆Tm (K) (human OGG1 enzyme [1]; [4]): 1.6 K
